8 compounds from patent publication US6596727B1, “Substituted pyrimidines, processes for their preparation, and their use as pesticides and fungicides” (priority 1992, dated 2003) can be followed below.

SMILES strings stand for the structures.

One data set deals with tropical cattle ticks (Boophilus microplus). The data set is described as follows: In vitro test with tropical cattle ticks, inhibition of oviposition. Type of data set: in vivo. The settings on record: 500 ppm active substance; females immersed five minutes; two weeks after the treatment. Here is the method: In vitro test with tropical cattle ticks (Boophilus microplus)
To prepare a suitable preparation of active substance, the active substances were dissolved at a concentration of 10% (w/v) in a mixture composed of dimethylformamide (85 g), nonylphenol polyglycol ether (3 g) and oxethylated castor oil (7 g), and the resulting emulsion concentrates were diluted with water to a test concentration of 500 ppm.
Batches of ten females of the tropical tick Boophilus microplus which had sucked themselves full were immersed for five minutes in these active substance dilutions. The ticks were subsequently dried on filter paper and then attached, by their backs, to an adhesive film for the purpose of oviposition. The ticks were kept in an incubator at 28° C. and an atmospheric humidity of 90%.
As a control, female ticks were merely immersed in water. The inhibition of oviposition two weeks after the treatment was used to assess the effectiveness. 100% mean that no ticks have deposited eggs, 0% means that all ticks have deposited eggs.
Take `CC(C)(C)C1CCC(Nc2ncnc3c2CCCC3)CC1` (mixture of isomers) [Example 10]: the inhibition of oviposition is given as 100%.
Take `CC(C)(C)C1CCC(Oc2ncnc3c2CCCC3)CC1` (stereo not drawn) [Example 19]: the inhibition of oviposition is 100%.
In the case of `CCC(C)(C)C1CCC(Nc2ncnc(COC)c2OC)CC1` (stereo not drawn) [Example 30], the inhibition of oviposition stood at 100%.
Still for that read-out and setting: next, `c1ccc(C2CCC(Oc3ncnc4c3CCCC4)CC2)cc1` (stereo not drawn) [Example 106]: 100%.

The test system of a further data set is larvae (L3) of the species Nilaparvata lugens. The data set is described as follows: Nilaparvata lugens larvae test on dipped rice plants. As to conditions: 250 ppm of the active ingredient, 21° C., after 4 days. Format: in vivo. From the text:
Rice seed is placed into glass culture dishes containing cotton wool and germinated under moist conditions and, after the stem has grown to a length of approx. 8 cm, it is dipped together with the leaves into the test solution. The test solution is allowed to run off from the treated rice plants, and the plants are transferred to culture containers and populated with batches of 10 larvae (L3) of the species Nilaparvata lugens, the individual test concentrations being kept separate from each other. After the sealed culture containers have been kept at 21° C., the mortality of the cicada larvae can be determined after 4 days.
Under these test conditions, the compounds according to Example No. 9, 25, 30, 93, 99, 432 have a 100% activity at a test concentration of 250 ppm of the active ingredient.
`COCc1ncnc(NC2CCC(C(C)(C)C)CC2)c1OC` (mixture of isomers) [Example 9]: the “mortality of the cicada larvae (activity)” value turned out to be 100%.
The same measure, in the same setting: next, `COCc1ncnc(NC2CCC(c3ccccc3)CC2)c1OC` (mixture of isomers) [Example 93]: 100%; `COCc1ncnc(NC2CCC(C(C)C)CC2)c1OC` (stereo not drawn) [Example 25]: 100%; `CCC(C)(C)C1CCC(Nc2ncnc(COC)c2OC)CC1` (stereo not drawn) [Example 30]: 100%.
With `CCc1ncnc(OC2CCC(c3ccc(OC(C)(C)C)cc3)CC2)c1Cl` (stereo not drawn) [Example 432], the “mortality of the cicada larvae (activity)” value is 100%.
